Reference: patent US12655116B2, “Substituted isophthalic acid diamides” (Bayer Aktiengesellschaft, priority 2020, dated 2026)

Tests used:
ABUTH [1] = test: Pre-emergence herbicidal action against ABUTH; type: in vivo, Abutilon theophrasti; settings: Abutilon theophrasti, 504 h; for pest or weed control at 80 g/ha: scored visually after 3 weeks vs untreated controls (100% = plants have died, 0% = like control plants)
How it was run: (§1)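 Pre-emergence soil-surface spray of formulated compound (WP or EC; 600 to 800 l/ha; 0.2% wetting agent) over seeds sown in sandy loam. After 3 weeks under greenhouse conditions, damage is estimated visually in percent against untreated plants.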

SETVI [2] = test: Pre-emergence herbicidal action against SETVI; type: in vivo, Setaria viridis; settings: Setaria viridis, 504 h; for pest or weed control at 20 g/ha: dosage 20 g/ha; for pest or weed control at 80 g/ha: dosage 80 g/ha
How it was run: as §1

ALOMY [3] = test: Pre-emergence herbicidal action against ALOMY; type: in vivo, Alopecurus myosuroides; settings: Alopecurus myosuroides, 504 h, pre-emergence; for pest or weed control at 80 g/ha: scored visually after 3 weeks vs untreated controls (100% = plants have died, 0% = like control plants)
How it was run: as §1

VIOTR [4] = test: Post-emergence herbicidal action against VIOTR; type: in vivo, Viola tricolor; settings: Viola tricolor, 504 h
How it was run: (§2)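 Greenhouse plants in sandy loam were sprayed at the one-leaf stage, 2 to 3 weeks after sowing, with WP or EC formulations as aqueous suspension or emulsion (600 to 800 l/ha water, 0.2% wetting agent). Visual damage was scored about 3 weeks later versus untreated controls, 0% = like control, 100% = dead.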

AMARE [5] = test: Pre-emergence herbicidal action against AMARE; type: in vivo, Amaranthus retroflexus; settings: Amaranthus retroflexus, 504 h, scored visually after 3 weeks vs untreated controls, 100% = plants have died, 0% = like control plants
How it was run: as §1

SETVI [6] = test: Post-emergence herbicidal action against SETVI; type: in vivo, Setaria viridis; settings: Setaria viridis, 504 h; for pest or weed control at 5 g/ha: dosage 5 g/ha; for pest or weed control at 20 g/ha: dosage 20 g/ha
How it was run: as §2

ECHCG [7] = test: Pre-emergence herbicidal action against ECHCG; type: in vivo, Echinochloa crus-galli; settings: Echinochloa crus-galli, 504 h
How it was run: as §1

ABUTH [8] = test: Post-emergence herbicidal action against ABUTH; type: in vivo, Abutilon theophrasti; settings: Abutilon theophrasti, 504 h, visual assessment about 3 weeks after treatment vs untreated controls; for pest or weed control at 5 g/ha: dosage 5 g/ha; for pest or weed control at 20 g/ha: dosage 20 g/ha
How it was run: as §2

MATIN [9] = test: Pre-emergence herbicidal action against MATIN; type: in vivo, Matricaria inodora; settings: Tripleurospermum inodorum, 504 h; for pest or weed control at 20 g/ha: dosage 20 g/ha; for pest or weed control at 80 g/ha: dosage 80 g/ha
How it was run: as §1

ALOMY [10] = test: Post-emergence herbicidal action against ALOMY; type: in vivo, Alopecurus myosuroides; settings: Alopecurus myosuroides, 504 h, visual assessment about 3 weeks after treatment vs untreated controls; for pest or weed control at 20 g/ha: dosage 20 g/ha
How it was run: as §2

DIGSA [11] = test: Pre-emergence herbicidal action against DIGSA; type: in vivo, Digitaria sanguinalis; settings: Digitaria sanguinalis, 504 h; for pest or weed control at 80 g/ha: dosage 80 g/ha
How it was run: as §1

VIOTR [12] = test: Pre-emergence herbicidal action against VIOTR; type: in vivo, Viola tricolor; settings: Viola tricolor, 504 h; for pest or weed control at 20 g/ha: dosage 20 g/ha; for pest or weed control at 80 g/ha: dosage 80 g/ha
How it was run: as §1

DIGSA [13] = test: Post-emergence herbicidal action against DIGSA; type: in vivo, Digitaria sanguinalis; settings: Digitaria sanguinalis, 504 h
How it was run: as §2

AVEFA [14] = test: Post-emergence herbicidal action against AVEFA; type: in vivo, Avena fatua; settings: Avena fatua, 504 h, 20 g/ha, visual assessment about 3 weeks after treatment, 100% = plants have died, 0% = like control plants
How it was run: as §2

PHBPU [15] = test: Post-emergence herbicidal action against PHBPU; type: in vivo, Pharbitis purpurea; settings: Ipomoea purpurea, 504 h, dosage 20 g/ha
How it was run: as §2

VERPE [16] = test: Pre-emergence herbicidal action against VERPE; type: in vivo, Veronica persica; settings: Veronica persica, 504 h, dosage 80 g/ha
How it was run: as §1

POLCO = test: Pre-emergence herbicidal action against POLCO; type: in vivo, Polygonum convolvulus; settings: Fallopia convolvulus, 504 h, dosage 80 g/ha
How it was run: as §1

AVEFA [17] = test: Pre-emergence herbicidal action against AVEFA; type: in vivo, Avena fatua; settings: Avena fatua, 504 h, pre-emergence
How it was run: as §1

VERPE [18] = test: Post-emergence herbicidal action against VERPE; type: in vivo, Veronica persica; settings: Veronica persica, 504 h, 20 g/ha
How it was run: as §2

ECHCG [19] = test: Post-emergence herbicidal action against ECHCG; type: in vivo, Echinochloa crus-galli; settings: Echinochloa crus-galli, 504 h; for pest or weed control at 5 g/ha: dosage 5 g/ha; for pest or weed control at 20 g/ha: dosage 20 g/ha
How it was run: as §2

AMARE [20] = test: Post-emergence herbicidal action against AMARE; type: in vivo, Amaranthus retroflexus; settings: Amaranthus retroflexus, 504 h, 20 g/ha, visual assessment about 3 weeks after treatment, 100% = plants have died, 0% = like control plants
How it was run: as §2

MATIN [21] = test: Post-emergence herbicidal action against MATIN; type: in vivo, Matricaria inodora; settings: Tripleurospermum inodorum, 504 h; for pest or weed control at 20 g/ha: dosage 20 g/ha
How it was run: as §2

PHBPU [22] = test: Pre-emergence herbicidal action against PHBPU; type: in vivo, Pharbitis purpurea; settings: Ipomoea purpurea, 504 h, dosage 80 g/ha
How it was run: as §1

[23] = 20 g/ha, scored visually after 3 weeks, 100% = plants have died, 0% = like control plants

SMILES | pest or weed control at 80 g/ha (ABUTH [1]) [%] | pest or weed control at 20 g/ha (SETVI [2]) [%] | pest or weed control at 80 g/ha (SETVI [2]) [%] | pest or weed control at 80 g/ha (ALOMY [3]) [%] | pest or weed control at 5 g/ha (VIOTR [4]) [%] | pest or weed control at 20 g/ha (VIOTR [4]) [%] | pest or weed control at 20 g/ha (AMARE [5]) [%] | pest or weed control at 80 g/ha (AMARE [5]) [%] | pest or weed control at 5 g/ha (SETVI [6]) [%] | pest or weed control at 20 g/ha (SETVI [6]) [%] | pest or weed control at 80 g/ha (ECHCG [7]) [%] | pest or weed control at 5 g/ha (ABUTH [8]) [%] | pest or weed control at 20 g/ha (ABUTH [8]) [%] | pest or weed control at 20 g/ha (MATIN [9]) [%] | pest or weed control at 80 g/ha (MATIN [9]) [%] | pest or weed control at 20 g/ha (ALOMY [10]) [%] | pest or weed control at 80 g/ha (DIGSA [11]) [%] | pest or weed control at 20 g/ha (VIOTR [12]) [%] | pest or weed control at 80 g/ha (VIOTR [12]) [%] | pest or weed control at 5 g/ha (DIGSA [13]) [%] | also measured
CCNC(=O)c1c(C(F)F)ccc(C(=O)Nc2nnnn2C)c1Br [Example 1-226] | 90 | 100 | 100 | 90 | 100 | 100 | 100 | 100 | 100 | 100 | 100 | 90 | 90 | 100 | 100 | 100 | 90 | 80 | 100 | 90 | pest or weed control at 20 g/ha (ECHCG [7]; 20 g/ha): 80%; pest or weed control at 5 g/ha (ALOMY [10]; dosage 5 g/ha): 80%; pest or weed control at 20 g/ha (DIGSA [13]): 100%; pest or weed control at 20 g/ha (AVEFA [14]): 80%; pest or weed control at 20 g/ha (PHBPU [15]): 80%; pest or weed control at 80 g/ha (VERPE [16]): 90%; pest or weed control at 80 g/ha (POLCO): 90%; pest or weed control at 80 g/ha (AVEFA [17]): 90%; pest or weed control at 20 g/ha (AVEFA [17]; [23]): 80%; pest or weed control at 20 g/ha (VERPE [18]): 90%; pest or weed control at 5 g/ha (ECHCG [19]): 100%; pest or weed control at 20 g/ha (ECHCG [19]): 100%; pest or weed control at 20 g/ha (AMARE [20]): 100%; pest or weed control at 20 g/ha (MATIN [21]): 80%
CCn1nnnc1NC(=O)c1ccc(C(F)(F)F)c(C(=O)NC2CC2)c1OC [Example 2-58] | 100 | 100 | 100 | 100 | 100 | 100 | 100 | 100 | 90 | 100 | 100 | 100 | 100 | 100 | 100 | 80 | 100 | 100 | 100 | 100 | pest or weed control at 20 g/ha (ABUTH [1]; dosage 20 g/ha, scored visually after 3 weeks vs untreated controls, 100% = plants have died, 0% = like control plants, read-out: Pre-emergence action against ABUTH (herbicidal activity in percent)): 100%; pest or weed control at 20 g/ha (ALOMY [3]; [23]): 90%; pest or weed control at 20 g/ha (DIGSA [11]; dosage 20 g/ha): 100%; pest or weed control at 20 g/ha (DIGSA [13]): 100%; pest or weed control at 20 g/ha (AVEFA [14]): 80%; pest or weed control at 20 g/ha (PHBPU [15]): 90%; pest or weed control at 80 g/ha (POLCO): 80%; pest or weed control at 80 g/ha (AVEFA [17]): 90%; pest or weed control at 5 g/ha (ECHCG [19]): 90%; pest or weed control at 20 g/ha (ECHCG [19]): 100%; pest or weed control at 20 g/ha (AMARE [20]): 100%; pest or weed control at 80 g/ha (PHBPU [22]): 90%; pest or weed control at 5 g/ha (MATIN [21]; dosage 5 g/ha): 80%; pest or weed control at 20 g/ha (MATIN [21]): 90%
